Laboratory results published in patent US20240101571A1, “NLRP3 MODULATORS” (Zomagen Biosciences Ltd, priority 2020, published 2024).
pIC50: −log10 of the molar value.

system: IL-1b; experiment: Human Whole Blood (HWB) IL-1b Assay; assay type: cell-based; details: compound 0.5 h, 100 ng/mL LPS 3.5 h, 5 mM ATP 45 min, IL-1b ELISA of supernatant
Experimental: Assay run as in Tran et al. “Whole blood assay as a model for in vitro evaluation of inflammasome activation and subsequent caspase-mediated interleukin-1 beta release” PLoSONE 14(4): e0214999.https://doi.org/10.1371/journal.pone.0214999. Namely, freshly drawn human whole blood with anti-coagulant was incubated with test compounds at various titration points for 0.5 hrs at 37° C. in 5% CO2. The cells were subsequently primed with 100 ng/mL LPS for 3.5 hours at 37° C. followed by stimulation with 5 mM ATP for an additional 45 minutes. The supernatant was harvested and analyzed for human IL-1b concentration using commercially available ELISA kits.

pIC50	Compound
5.00 to 6.00	O=C(Nc1c(C2CCC2)ccc2c1CCC2)NS(=O)(=O)c1cc2c(o1)C1CCN(CC1)C2 [Compound 42, N-((5-cyclobuty1-2,3-dihydro-1H-inden-4-yl)carbamoyl)-4,6,7,8-tetrahydro-5,8-ethanofuro[3,2-c]azepine-2-sulfonamide]
5.00 to 6.00	O=C(Nc1c(C2CCOCC2)ccc2c1CCC2)NS(=O)(=O)c1cc2c(o1)C1CCN(CC1)C2 [Compound 37, N-((5-(tetrahydro-2H-pyran-4-yl)-2,3-dihydro-1H-inden-4-yl)carbamoyl)-4,6,7,8-tetrahydro-5,8-ethanofuro[3,2-c]azepine-2-sulfonamide]
5.00 to 6.00	CC(C)c1cc(F)cc(C(C)C)c1NC(=O)NS(=O)(=O)c1cc2c(o1)C1CCN(CC1)C2 [Compound 34, N-((4-fluoro-2,6-diisopropylphenyl)carbamoyl)-4,6,7,8-tetrahydro-5,8-ethanofuro[3,2-c]azepine-2-sulfonamide]
> 6.00	CC(C)c1ccc2c(c1NC(=O)NS(=O)(=O)c1cc3c(o1)C1CCN(CC1)C3)CCC2 [Compound 29, N-((5-isopropyl-2,3-dihydro-1H-inden-4-yl)carbamoyl)-4,6,7,8-tetrahydro-5,8-ethanofuro[3,2-c]azepine-2-sulfonamide]
> 6.00	COc1cc(-c2ccc3c(c2NC(=O)NS(=O)(=O)c2cc4c(o2)C2CCN(CC2)C4)CCC3)ccn1 [Compound 27, N-((5-(2-methoxypyridin-4-yl)-2,3-dihydro-1H-inden-4-yl)carbamoyl)-4,6,7,8-tetrahydro-5,8-ethanofuro[3,2-c]azepine-2-sulfonamide]
> 6.00	O=C(Nc1c2c(cc3c1CCO3)CCC2)NS(=O)(=O)c1cc2c(o1)C1CCN(CC1)C2 [Compound 40, N-((3,5,6,7-tetrahydro-2H-indeno[5,6-b]furan-4-yl)carbamoyl)-4,6,7,8-tetrahydro-5,8-ethanofuro[3,2-c]azepine-2-sulfonamide]
> 6.00	O=C(Nc1c2c(c(F)c3c1CCC3)CCC2)NS(=O)(=O)c1cc2c(o1)C1CCN(CC1)C2 [Compound 32, N-((8-fluoro-1,2,3,5,6,7-hexahydro-s-indacen-4-yl)carbamoyl)-4,6,7,8-tetrahydro-5,8-ethanofuro[3,2-c]azepine-2-sulfonamide]
5.00 to 6.00	CC#Cc1ccc2c(c1NC(=O)NS(=O)(=O)c1cc3c(o1)C1CCN(CC1)C3)CCC2 [Compound 44, N-((5-(prop-1-yn-1-yl)-2,3-dihydro-1H-inden-4-yl)carbamoyl)-4,6,7,8-tetrahydro-5,8-ethanofuro[3,2-c]azepine-2-sulfonamide]
> 6.00	CC(C)c1cc(F)c2c(c1NC(=O)NS(=O)(=O)c1cc3c(o1)C1CCN(CC1)C3)CCC2 [Compound 30, N-((7-fluoro-5-isopropyl-2,3-dihydro-1H-inden-4-yl)carbamoyl)-4,6,7,8-tetrahydro-5,8-ethanofuro[3,2-c]azepine-2-sulfonamide]
> 6.00	O=C(Nc1c(C2CC2)ccc2c1CCC2)NS(=O)(=O)c1cc2c(o1)C1CCN(CC1)C2 [Compound 38, N-((5-cyclopropyl-2,3-dihydro-1H-inden-4-yl)carbamoyl)-4,6,7,8-tetrahydro-5,8-ethanofuro[3,2-c]azepine-2-sulfonamide]
5.00 to 6.00	CC(C)c1c(F)cc(F)c(C(C)C)c1NC(=O)NS(=O)(=O)c1cc2c(o1)C1CCN(CC1)C2 [Compound 36, N-((3,5-difluoro-2,6-diisopropylphenyl)carbamoyl)-4,6,7,8-tetrahydro-5,8-ethanofuro[3,2-c]azepine-2-sulfonamide]
5.00 to 6.00	O=C(Nc1c(C2CCCC2)ccc2c1CCC2)NS(=O)(=O)c1cc2c(o1)C1CCN(CC1)C2 [Compound 39, N-((5-cyclopentyl-2,3-dihydro-1H-inden-4-yl)carbamoyl)-4,6,7,8-tetrahydro-5,8-ethanofuro[3,2-c]azepine-2-sulfonamide]
> 6.00	O=C(Nc1c(C(F)(F)F)ccc2c1CCC2)NS(=O)(=O)c1cc2c(o1)C1CCN(CC1)C2 [Compound 41, N-((5-(trifluoromethyl)-2,3-dihydro-1H-inden-4-yl)carbamoyl)-4,6,7,8-tetrahydro-5,8-ethanofuro[3,2-c]azepine-2-sulfonamide]
> 6.00	CC(C)c1c(F)c(Cl)c(F)c(C(C)C)c1NC(=O)NS(=O)(=O)c1cc2c(o1)C1CCN(CC1)C2 [Compound 35, N-((4-chloro-3,5-difluoro-2,6-diisopropylphenyl)carbamoyl)-4,6,7,8-tetrahydro-5,8-ethanofuro[3,2-c]azepine-2-sulfonamide]
> 6.00	COc1cc(-c2ccc3c(c2NC(=O)NS(=O)(=O)c2cc4c(s2)C2CCN(CC2)C4)CCC3)ccn1 [Compound 28, N-((5-(2-methoxypyridin-4-yl)-2,3-dihydro-1H-inden-4-yl)carbamoyl)-4,6,7,8-tetrahydro-5,8-ethanothieno[3,2-c]azepine-2-sulfonamide]
5.00 to 6.00	O=C(Nc1c(C2=CCC2)ccc2c1CCC2)NS(=O)(=O)c1cc2c(o1)C1CCN(CC1)C2 [Compound 43, N-((5-(cyclobut-1-en-1-yl)-2,3-dihydro-1H-inden-4-yl)carbamoyl)-4,6,7,8-tetrahydro-5,8-ethanofuro[3,2-c]azepine-2-sulfonamide]
> 6.00	O=C(Nc1c2c(cc3c1CCC3)CCC2)NS(=O)(=O)c1cc2c(o1)C1CCN(CC1)C2 [Compound 13, sodium ((1,2,3,5,6,7-hexahydro-s-indacen-4-yl)carbamoyl)((4,6,7,8-tetrahydro-5,8-ethanofuro[3,2-c]azepin-2-yl)sulfonyl)amide]
> 6.00	CC(C)c1ccc(F)c(C(C)C)c1NC(=O)NS(=O)(=O)c1cc2c(o1)C1CCN(CC1)C2 [Compound 31, N-((3-fluoro-2,6-diisopropylphenyl)carbamoyl)-4,6,7,8-tetrahydro-5,8-ethanofuro[3,2-c]azepine-2-sulfonamide]
> 6.00	O=C(Nc1c2c(cc3c1CCC3)CCC2)NS(=O)(=O)c1cc2c(s1)C1CCN(CC1)C2 [Compound 25]
5.00 to 6.00	N#Cc1c2c(c(NC(=O)NS(=O)(=O)c3cc4c(o3)C3CCN(CC3)C4)c3c1CCC3)CCC2 [Compound 33, N-((8-cyano-1,2,3,5,6,7-hexahydro-s-indacen-4-yl)carbamoyl)-4,6,7,8-tetrahydro-5,8-ethanofuro[3,2-c]azepine-2-sulfonamide]

system: IL-1b; experiment: Mouse BMDM IL-1b Assay; assay type: cell-based; details: Macrophage, C57BL6 bone marrow derived macrophages, 200 ng/mL LPS 3 h, compound 30 min, 5 mM ATP 45 min, IL-1b ELISA of supernatant
Experimental: Mouse bone marrow cells from C57BL6 tibia and femur were culture in complete Isocov's Media supplemented with 20 ng/mL MCSF (BMDM media) at a density of 50 million cells/15 cm Petri dish. Fresh media was changed every 3 days, and bone marrow derived macrophages were collected, washed, and counted on day 7. Cells were seeded into 96 well plates at a density of 5×10^4 cells per well in 100 uL of BMDM media and cultured overnight. The cells were stimulated at 37° C. with 200 ng/mL Ultrapure LPS-B5 for 3 hours before pre-diluted compounds were added. 30 minutes after compound addition, 5 mM ATP was added for the secondary stimulation for 45 minutes. After stimulation, the plates were briefly spun down, and 50 uL of supernatant was harvested from each well. ELISA for mouse IL-1b was performed with 1:10 and 1:100 diluted supernatant using pre-coated kits. IL-1b concentrations were calculated based on pre-titrated standards, and compound inhibition IC50 is generated using the Levenberg Marquardt damped lease-square method.

pIC50	Compound
> 7.00	O=C(Nc1c2c(cc3c1CCC3)CCC2)NS(=O)(=O)c1cc2c(s1)C1CCN(CC1)C2 [Compound 26, sodium ((1,2,3,5,6,7-hexahydro-s-indacen-4-yl)carbamoyl)((4,6,7,8-tetrahydro-5,8-ethanothieno[3,2-c]azepin-2-yl)sulfonyl)amide]
> 7.00	O=C(Nc1c2c(cc3c1CCC3)CCC2)NS(=O)(=O)c1cc2c(o1)C1CCN(CC1)C2 [Compound 13, sodium ((1,2,3,5,6,7-hexahydro-s-indacen-4-yl)carbamoyl)((4,6,7,8-tetrahydro-5,8-ethanofuro[3,2-c]azepin-2-yl)sulfonyl)amide]
